Results taken from patent US11773081B2, “Pharmaceutical composition for preventing or treating wound, comprising indirubin derivative as active ingredient” (CK Regeon Inc., priority 2018, dated 2023).

Test system: diabetic wound
Test: Effect of treating diabetic wound (Test Example 9)
Format: in vivo
Details: diabetes-induced mouse
Experimental: 3-week-old male C57BL/6N mice (Koatech, South Korea) were used. After accustoming the mice for a week to normal feed, high-fat diet (Product Data—D12492; 60% kcal, hereinafter referred to as HFD) was given for 4 weeks. Then, a diabetes-induced animal model was prepared by intraperitoneally injecting 40 mg/kg streptozocin (Sigma) once daily for a week. The mice were kept in cages maintained at constant temperature (22±2° C.) and relative humidity (40-60%) with light/dark cycles of 12/12 hours.
6 mice of the normal control group and 6 mice per test group of the diabetes-induced animal model of Test Example 7 were prepared. The hair on the back was removed and a 0.8×0.8 cm^2 wound was made on the hair-removed region.
For the normal control group, only 20 μL of an emulsion solution (Kollipore®EL:Tween 80:PEG 400 at a mixing weight ratio of 80:6:14) was applied to the wound site once daily for 14 days. For the negative control group, only 20 μL of the emulsion solution (Kollipore®EL:Tween 80:PEG 400 at a mixing weight ratio of 80:6:14) was applied to the wound site once daily for 14 days. For the positive control group (VPA), 20 μL of a composition prepared by mixing 500 mM VPA in an emulsion solution was applied to the wound site once daily for 14 days.
For the first test group, 20 μL of A3334 (Example 1) was applied to the wound site once daily for 14 days. For the second test group, 20 μL of A3051 (Example 2) was applied to the wound site once daily for 14 days. Then, the wound site of each group was photographed and the wound area was measured (FIG. 14). On day 14, after euthanizing the mouse with carbon dioxide, the wound site tissue was harvested and the histological structure was observed.
Specifically, the wound site tissue obtained from the normal control group, the negative control group, the positive control group or the first or second test group was fixed by immersing in 4% paraformaldehyde, embedded in paraffin and then sliced into 4 μm thickness. The sliced tissue was deparaffinized, rehydrated and then stained with hematoxylin (purple) and eosin (pink) for observation of histological structure.
Specifically, the wound site tissue obtained from the normal control group, the negative control group, the positive control group or the first or second test group was fixed by immersing in 4% paraformaldehyde, embedded in paraffin and then sliced into 4 μm thickness. The sliced tissue was deparaffinized, rehydrated and then stained with Van Gieson's stain and Masson's trichrome for observation of histological structure. For the Van Gieson's staining, the sliced tissue was immersed in Weigert's solution for 10 minutes and in picrofuchsin solution for 2 minutes. For the Masson's trichrome staining, the sliced tissue was immersed in Weigert's iron hematoxylin solution for 10 minutes and in Biebrich scarlet-acid fuchsin and Aniline blue for 5 minutes each.
Specifically, the wound site tissue obtained from the normal control group, the negative control group, the positive control group or the first and second test groups was fixed by immersing in 4% paraformaldehyde and angiogenesis was observed.

COc1ccc2c(c1)/C(=C1/Nc3ccccc3/C1=N\O)C(=O)N2 [Example 1, 5-methoxylindirubin-3′-oxime]
angiogenesis around the wound site: increased angiogenesis
healing of the wound site (0.8×0.8 cm^2 wound, 20 μL once daily for 14 days, VPA 500 mM): healing of the wound site was promoted similarly to the normal control group
re-epithelialization (H&E) (14 days): re-epithelialization occurred quickly
collagen synthesis (Van Gieson's stain, Masson's trichrome) (vs normal, negative and positive control group (VPA)): increased collagen synthesis
